From US20040002425A1, “Triketone derivatives and herbicides” (Idemitsu Kosan Co., Ltd., priority 1998, published 2004) come the findings set out here.

In this data set the test system is Transplanted paddy rice plant. Put plainly: Biological Test 1 (treatment on the 3rd day after transplantation): chemical injury to paddy rice. The format is in vivo. The arrangement: scale not given here. Conditions: Treatment performed 3 days after transplantation. The procedure:
(1) Preparation of Herbicide
Talc (57 parts by weight) and bentonite (40 parts by weight), both serving as carriers, and sodium alkylbenzenesulfate (3 parts by weight) serving as a surfactant were homogeneously ground and mixed to thereby obtain a carrier for water-dispersible powder.
Subsequently, to the water-dispersible powder (90 parts by weight), the triketone derivative (compound No. A-1) produced in Example I-1 (10 parts by weight) was added, and the resultant mixture was homogeneously ground and mixed to thereby obtain a herbicide.
(i) Biological Test 1 (Soaking in Water/Treatment on the 3rd Day After Transplantation)
A Wagner pot (1/2000 are) was filled with paddy soil, and seeds of barnyard grass were planted on the surface layer of the soil, and further, rice seedlings grown to the 2.5-leaf stage were transplanted.
Subsequently, water was poured in the pot to a height of 3 cm above the soil surface, and placed in a greenhouse where the temperature was maintained at 20-25° C., to thereby grow the plant under suitable conditions.
On the 3rd day after transplantation, the herbicide prepared in (1) above was applied to the plant in a predetermined amount. On the 30th day after treatment with the herbicide, weed-killing ratio, herbicidal effect, and extent of chemical injury to paddy rice were examined.
In Biological tests 1 and 2, herbicidal effect and extent of chemical injury were evaluated according to the below-described standards.
3) Chemical Injury to Paddy Rice
Chemical injury to paddy rice was evaluated according to the following criteria.

[1] abbreviates: dose 100 g/ha, examined on the 30th day after treatment.
The mark [2] stands for this setting: dose 200 g/ha, examined on the 30th day after treatment.

For the compound `CC1CCC(O)=C(C(=O)c2ccc3c(c2Cl)CCS3(=O)=O)C1=O` (centres unmarked) [A-7, 4-chloro-5-(4-methyl-1,3-dioxocyclohexan-2-yl)carbonyl-2,3-dihydrobenzothiophene-1,1-dioxide], the “Chemical injury, Transplanted paddy rice plant” value (from here on “Chemical injury”) came out at 1 under setting [1] and 2 under setting [2].
On to `O=C1CCCC(O)=C1C(=O)c1ccc2c(c1Cl)CCS2(=O)=O` [A-1, 4-chloro-5-(1,3-dioxocyclohexan-2-yl)carbonyl-2,3-dihydrobenzothiophene-1,1-dioxide], for which the “Chemical injury” value came to 0 under setting [1] and 0 under setting [2].
As to `Cc1cc(C(=O)C2=C(Sc3ccccc3)CCCC2=O)c(Cl)c2c1S(=O)(=O)CC2` [B-5], the “Chemical injury” value was 0 (dose 100 g/ha) and 0 (dose 200 g/ha).
In the case of `CSC1=C(C(=O)c2ccc3c(c2Cl)CCS3(=O)=O)C(=O)CCC1` [B-7], the “Chemical injury” value runs as follows: (dose 100 g/ha) 0; (dose 200 g/ha) 0.
`CC1CC(O)=C(C(=O)c2ccc3c(c2Cl)CCS3(=O)=O)C(=O)C1C` (centres unmarked) [A-16, 4-chloro-5-(4,5-dimethyl-1,3-dioxocyclohexan-2-yl)carbonyl-2,3-dihydrobenzothiophene-1,1-dioxide]: the “Chemical injury” value is on record as 1 under setting [1] and 3 under setting [2].
As for `O=C1CCCC(Cl)=C1C(=O)c1ccc2c(c1Cl)CCCS2(=O)=O` [B-77], the “Chemical injury” value (dose 100 g/ha) amounted to 0 and the “Chemical injury” value (dose 200 g/ha) was found to be 0.
Consider `O=C1CCCC(=O)C1C(=O)c1ccc2c(c1Br)CCS2(=O)=O` [A-20, 4-bromo-5-(1,3-dioxocyclohexan-2-yl)carbonyl-2,3-dihydrobenzothiophene-1,1-dioxide], for which the “Chemical injury” value runs as follows: under setting [1], 0; under setting [2], 0.
`Cc1c(C(=O)C2=C(Cl)CCCC2=O)ccc2c1CCS2(=O)=O` [B-47]: the “Chemical injury” value runs as follows: (dose 100 g/ha) 0; (dose 200 g/ha) 0.
On to `CC(C)SC1=C(C(=O)c2ccc3c(c2Cl)CCS3(=O)=O)C(=O)CCC1` [B-9], for which the “Chemical injury” value runs as follows: (dose 100 g/ha) 0; (dose 200 g/ha) 0.
On to `CO/N=C1\CCS(=O)(=O)c2ccc(C(=O)C3=C(Sc4ccccc4)CCCC3=O)c(C)c21` [B-74, 4-methoxyimino-5-methyl-6-(3-phenylthio-1-oxocyclohexan-2-yl)carbonylthiochroman-1,1-dioxide], for which the “Chemical injury” value reads like this: (dose 100 g/ha) 0; (dose 200 g/ha) 0.
Regarding `Cc1cc(C(=O)C2=C(Cl)CCCC2=O)c(C)c2c1S(=O)(=O)CCC2OC(C)C` (centres unmarked) [B-66], the “Chemical injury” value was 0 (dose 100 g/ha) and 4 (dose 200 g/ha).
Turning to `Cc1cc(C(=O)C2=C(O)CC(C)(C)CC2=O)c(Cl)c2c1S(=O)(=O)CC2` [A-10, 4-chloro-7-methyl-5-(5,5-dimethyl-1,3-dioxocyclohexan-2-yl)carbonyl-2,3-dihydrobenzothiophene-1,1-dioxide], the “Chemical injury” value runs as follows: under setting [1], 1; under setting [2], 3.
Consider `CCCSC1=C(C(=O)c2cc(C)c3c(c2C)/C(=N/OC)CCS3(=O)=O)C(=O)CCC1` [B-61, 4-methoxyimino-5,8-dimethyl-6-[3-(3-propyl)thio-1-oxocyclohexan-2-yl)carbonylthiochroman-1,1-1,1-dioxide], for which the “Chemical injury” value reads like this: (dose 100 g/ha) 0; (dose 200 g/ha) 0.
Consider `O=C1CCCC(Sc2ccccc2)=C1C(=O)c1ccc2c(c1Cl)CCS2(=O)=O` [B-3], for which the “Chemical injury” value (dose 100 g/ha) stood at 0 and the “Chemical injury” value (dose 200 g/ha) worked out at 0.
With `O=C1CCCC([O-])=C1C(=O)c1ccc2c(c1Cl)CCS2(=O)=O.[Na+]` [A-19, Sodium Salt of 4-chloro-5-(1,3-dioxocyclohexan-2-yl)carbonyl-2,3-dihydrobenzothiophene-1,1-dioxide], the “Chemical injury” value runs as follows: under setting [1], 0; under setting [2], 1.
For `CC(C)(C)S(=O)(=O)C1=C(C(=O)c2ccc3c(c2Cl)CCS3(=O)=O)C(=O)CCC1` [B-39], the “Chemical injury” value is reported as 0 (dose 100 g/ha) and 0 (dose 200 g/ha).
Regarding `Cc1ccccc1SC1=C(C(=O)c2ccc3c(c2Cl)CCS3(=O)=O)C(=O)CCC1` [B-16], the “Chemical injury” value (dose 100 g/ha) is recorded as 0 and the “Chemical injury” value (dose 200 g/ha) is reported as 0.
Regarding `O=C1CCCC(Cl)=C1C(=O)c1ccc2c(c1Cl)CCS2(=O)=O` [B-1], the “Chemical injury” value amounted to 0 (dose 100 g/ha) and 0 (dose 200 g/ha).
Regarding `O=C1CCCC(O)=C1C(=O)c1cccc2c1OCCO2` [Comparative Example I-2, reference compound], the “Chemical injury” value by setting is: under setting [1], 0; under setting [2], 0.
With `COC(=O)c1ccccc1S(=O)(=O)C1=C(C(=O)c2ccc3c(c2Cl)CCS3(=O)=O)C(=O)CCC1` [B-44], the “Chemical injury” value is on record as 0 (dose 100 g/ha) and 0 (dose 200 g/ha).
Turning to `CC1Cc2c(ccc(C(=O)C3=C(O)CCCC3=O)c2Cl)S1(=O)=O` (centres unmarked) [A-17, 4-chloro-2-methyl-5-(1,3-dioxocyclohexan-2-yl)carbonyl-2,3-dihydrobenzothiophene-1,1-dioxide], the “Chemical injury” value came out at 0 under setting [1] and 1 under setting [2].
Turning to `O=C1CCCC(S(=O)(=O)Cc2ccccc2)=C1C(=O)c1ccc2c(c1Cl)CCS2(=O)=O` [B-40], the “Chemical injury” value reads like this: (dose 100 g/ha) 0; (dose 200 g/ha) 0.
Take `CC1CC(=O)C(C(=O)c2ccc3c(c2Cl)CCS3(=O)=O)=C(Cl)C1` (centres unmarked) [B-25]: the “Chemical injury” value is, setting by setting: (dose 100 g/ha) 0; (dose 200 g/ha) 1.
On the same counts, the results for `CO/N=C1\CCS(=O)(=O)c2c(C)cc(C(=O)C3=C(N(C)OC)CCCC3=O)c(C)c21` [B-57, 4-methoxyimino-5,8-dimethyl-6-[3-(N-methoxymethyl)amino-1-oxocyclohexan-2-yl]carbonylthiochroman-1,1-1,1-dioxide] are 0 and 3.
Turning to `Cc1c(C(=O)C2=C(S(=O)(=O)c3ccc(Cl)cc3)CCCC2=O)ccc2c1C(=O)C(C)(C)CS2(=O)=O` [B-65], the “Chemical injury” value reads like this: (dose 100 g/ha) 3; (dose 200 g/ha) 4.
`CC(=O)c1ccc(SC2=C(C(=O)c3ccc4c(c3Cl)CCS4(=O)=O)C(=O)CCC2)cc1` [B-45, 4-chloro-5-[3-(4-acetylphenyl)thio-1-oxocyclohexan-2-yl]carbonyl-2,3-dihydrobenzothiophene-1,1-dioxide]: the “Chemical injury” value (dose 100 g/ha) stood at 0 and the “Chemical injury” value (dose 200 g/ha) is listed as 0.
Consider `CO/N=C1\CCS(=O)(=O)c2c(C)cc(C(=O)C3=C(Nc4ccc(C)cc4)CCCC3=O)c(C)c21` [B-58, 4-methoxyimino-5,8-dimethyl-6-[3-(4-methylphenyl)amino-1-oxocyclohexan-2-yl]carbonylthiochroman-1,1-1,1-dioxide], for which the “Chemical injury” value is, setting by setting: (dose 100 g/ha) 0; (dose 200 g/ha) 0.
Regarding `Cc1ccc(SC2=C(C(=O)c3ccc4c(c3Cl)CCS4(=O)=O)C(=O)CCC2)cc1` [B-14, 4-chloro-5-[3-(4-methylphenyl)thio-1-oxocyclohexan-2-yl]carbonyl-2,3-dihydrobenzothiophene-1,1-dioxide], the “Chemical injury” value runs as follows: (dose 100 g/ha) 0; (dose 200 g/ha) 0.
For the compound `O=C1CCCC(S(=O)(=O)c2ccc(O)cc2)=C1C(=O)c1ccc2c(c1Cl)CCS2(=O)=O` [B-43], the “Chemical injury” value (dose 100 g/ha) came out at 0 and the “Chemical injury” value (dose 200 g/ha) worked out at 0.
As for `COc1c(C(=O)C2=C(O)CCCC2=O)ccc2c1CC(C)S2(=O)=O` (centres unmarked) [A-18, 4-methoxy-2-methyl-5-(1,3-dioxocyclohexan-2-yl)carbonyl-2,3-dihydrobenzothiophene-1,1-dioxide], the “Chemical injury” value amounted to 0 under setting [1] and 1 under setting [2].
Consider `CO/N=C1\CCS(=O)(=O)c2c(C)cc(C(=O)C3=C(Sc4ccc(C)cc4)CCCC3=O)c(C)c21` [B-59, 4-methoxyimino-5,8-dimethyl-6-[3-(4-methylphenyl)thio-1-oxocyclohexan-2-yl]carbonylthiochroman-1,1-1,1-dioxide], for which the “Chemical injury” value is, setting by setting: (dose 100 g/ha) 0; (dose 200 g/ha) 0.
As to `COc1ccc(SC2=C(C(=O)c3ccc4c(c3Cl)CCS4(=O)=O)C(=O)CCC2)cc1` [B-20], the “Chemical injury” value (dose 100 g/ha) is recorded as 0 and the “Chemical injury” value (dose 200 g/ha) is 0.
Consider `CC(C)(C)SC1=C(C(=O)c2ccc3c(c2Cl)CCS3(=O)=O)C(=O)CCC1` [B-23], for which the “Chemical injury” value is, setting by setting: (dose 100 g/ha) 0; (dose 200 g/ha) 0.
`O=C1CCCC(S(=O)(=O)c2ccccc2)=C1C(=O)c1ccc2c(c1Cl)CCS2(=O)=O` [B-31]: the “Chemical injury” value runs as follows: (dose 100 g/ha) 0; (dose 200 g/ha) 0.
